Test results as given in the supplement of paper PMC10307832.

Key:
Assay in all cases: relative viability (nuclei count vs DMSO), 5 days (fraction); higher = more cells survive
Alisertib + Phenformin = compound: COc1cc(Nc2ncc3c(n2)-c2ccc(Cl)cc2C(c2c(F)cccc2OC)=NC3)ccc1C(=O)O [Alisertib] + N=C(N)NC(=N)NCCc1ccccc1 [Phenformin] (partner 250 µM)
Method in brief: (§1)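 Each reported value is a median over duplicate plates. It expresses relative viability: treated-well nuclei count divided by vehicle-well nuclei count. Lung cancer cell lines in 1536-well plates were dosed by pin tool a day after seeding, alone with one drug or with a fixed anchor-drug dose plus five library-drug doses (not always all listed) in √10 steps, and nuclei were counted after 5 days.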

Alisertib + Pictilisib = compound: COc1cc(Nc2ncc3c(n2)-c2ccc(Cl)cc2C(c2c(F)cccc2OC)=NC3)ccc1C(=O)O [Alisertib] + CS(=O)(=O)N1CCN(Cc2cc3nc(-c4cccc5[nH]ncc45)nc(N4CCOCC4)c3s2)CC1 [Pictilisib] (partner 1 µM)
Method in brief: as §1

Alisertib + AZD7762 = compound: COc1cc(Nc2ncc3c(n2)-c2ccc(Cl)cc2C(c2c(F)cccc2OC)=NC3)ccc1C(=O)O [Alisertib] + NC(=O)Nc1cc(-c2cccc(F)c2)sc1C(=O)N[C@H]1CCCNC1 [AZD7762] (partner 0.2 µM)
Method in brief: as §1

Alisertib + Alpelisib = compound: COc1cc(Nc2ncc3c(n2)-c2ccc(Cl)cc2C(c2c(F)cccc2OC)=NC3)ccc1C(=O)O [Alisertib] + Cc1nc(NC(=O)N2CCC[C@H]2C(N)=O)sc1-c1ccnc(C(C)(C)C(F)(F)F)c1 [Alpelisib] (partner 2 µM)
Method in brief: as §1

| Cell Line | relative viability (Alisertib + Phenformin; first compound 0.005 µM) | relative viability (Alisertib + Phenformin; first compound 0.01581 µM) | relative viability (Alisertib + Phenformin; first compound 0.05 µM) | relative viability (Alisertib + Phenformin; first compound 0.1581 µM) | relative viability (Alisertib + Phenformin; first compound 0.5 µM) | relative viability (Alisertib + Pictilisib; first compound 0.005 µM) | relative viability (Alisertib + Pictilisib; first compound 0.01581 µM) | relative viability (Alisertib + Pictilisib; first compound 0.05 µM) | relative viability (Alisertib + Pictilisib; first compound 0.1581 µM) | relative viability (Alisertib + Pictilisib; first compound 0.5 µM) | relative viability (Alisertib + AZD7762; first compound 0.005 µM) | relative viability (Alisertib + AZD7762; first compound 0.01581 µM) | relative viability (Alisertib + AZD7762; first compound 0.05 µM) | relative viability (Alisertib + AZD7762; first compound 0.1581 µM) | relative viability (Alisertib + AZD7762; first compound 0.5 µM) | relative viability (Alisertib + Alpelisib; first compound 0.005 µM) | relative viability (Alisertib + Alpelisib; first compound 0.01581 µM) | relative viability (Alisertib + Alpelisib; first compound 0.05 µM) | relative viability (Alisertib + Alpelisib; first compound 0.1581 µM) | relative viability (Alisertib + Alpelisib; first compound 0.5 µM) |
| --- | --- | --- | --- | --- | --- | --- | --- | --- | --- | --- | --- | --- | --- | --- | --- | --- | --- | --- | --- | --- |
| HCC-366 | 0.552 | 0.202 | 0.138 | 0.0286 | 0.0335 | 0.0828 | 0.135 | 0.0183 | 0.0243 | 0.0203 | 0.351 | 0.396 | 0.0718 | 0.0314 | 0.027 | 0.337 | 0.46 | 0.0611 | 0.0117 | 0.0152 |
| HCC-827 | 0.353 | 0.431 | 0.39 | 0.198 | 0.178 | 0.869 | 0.978 | 0.515 | 0.381 | 0.361 | 0.18 | 0.247 | 0.206 | 0.123 | 0.15 | 1.05 | 0.913 | 0.321 | 0.282 | 0.232 |
| HOP-62 | 0.612 | 0.553 | 0.345 | 0.147 | 0.143 | 0.579 | 0.757 | 0.373 | 0.149 | 0.103 | 0.447 | 0.412 | 0.268 | 0.158 | 0.0945 | 0.926 | 0.976 | 0.345 | 0.198 | 0.133 |
| IA-LM |  |  |  |  |  | 0.332 | 0.25 | 0.201 | 0.142 | 0.0927 |  |  |  |  |  | 0.407 | 0.739 | 0.462 | 0.247 | 0.0598 |
| LC-2-ad | 0.474 | 0.426 | 0.401 | 0.295 | 0.304 | 0.116 | 0.251 | 0.107 | 0.108 | 0.105 | 0.768 | 0.5 | 0.224 | 0.185 | 0.15 | 0.766 | 0.631 | 0.209 | 0.138 | 0.0966 |
| LCLC-97TM1 | 0.451 | 0.386 | 0.333 | 0.174 | 0.153 | 0.223 | 0.167 | 0.135 | 0.108 | 0.0964 | 0.192 | 0.307 | 0.207 | 0.103 | 0.0633 | 0.23 | 0.203 | 0.15 | 0.138 | 0.112 |
| NCI-H520 | 0.552 | 0.395 | 0.275 | 0.318 | 0.2 | 0.23 | 0.203 | 0.209 | 0.179 | 0.187 |  |  |  |  |  | 0.966 | 0.766 | 0.429 | 0.323 | 0.273 |
| NCI-H661 | 0.267 | 0.288 | 0.271 | 0.246 | 0.29 | 0.378 | 0.379 | 0.229 | 0.245 | 0.242 |  |  |  |  |  | 0.579 | 0.669 | 0.552 | 0.31 | 0.235 |
| NCI-H1299 |  |  |  |  |  | 0.753 | 0.698 | 0.187 | 0.179 | 0.0871 |  |  |  |  |  | 1.06 | 1 | 0.815 | 0.522 | 0.279 |
| NCI-H1563 | 0.664 | 0.643 | 0.674 | 0.724 | 0.539 | 0.646 | 0.608 | 0.606 | 0.717 | 0.296 |  |  |  |  |  | 0.967 | 0.848 | 0.9 | 0.824 | 0.719 |
| NCI-H1648 |  |  |  |  |  |  |  |  |  |  |  | 0.654 | 0.62 | 0.314 | 0.223 |  |  |  |  |  |
| NCI-H1650 | 0.38 | 0.381 | 0.167 | 0.137 | 0.141 | 0.527 | 0.461 | 0.328 | 0.151 | 0.166 |  |  |  |  |  |  |  |  |  |  |
| NCI-H1703 |  |  |  |  |  | 0.246 | 0.22 | 0.182 | 0.163 | 0.155 | 0.119 | 0.134 | 0.115 | 0.0952 | 0.0979 | 0.298 | 0.311 | 0.211 | 0.157 | 0.18 |
| NCI-H2009 | 0.486 | 0.462 | 0.312 | 0.228 | 0.203 | 0.787 | 0.787 | 0.387 | 0.185 | 0.139 |  |  |  |  |  | 1.15 | 1.02 | 0.417 | 0.375 | 0.265 |
| NCI-H2023 | 0.428 | 0.388 | 0.28 | 0.157 | 0.0966 | 0.193 | 0.194 | 0.191 | 0.128 | 0.0717 |  |  |  |  |  | 0.571 | 0.412 | 0.456 | 0.351 | 0.117 |
| NCI-H2228 | 0.277 | 0.287 | 0.17 | 0.0908 | 0.0966 | 0.362 | 0.419 | 0.228 | 0.119 | 0.138 |  |  |  |  |  | 0.781 | 0.499 | 0.256 | 0.133 | 0.193 |
| NCI-H2342 | 0.552 | 0.551 | 0.581 | 0.41 | 0.362 |  |  |  |  |  | 0.565 | 0.43 | 0.347 | 0.352 | 0.414 |  |  |  |  |  |
| SK-LU-1 | 0.455 | 0.462 | 0.22 | 0.21 | 0.142 | 0.58 | 0.386 | 0.312 | 0.266 | 0.209 |  |  |  |  |  | 0.929 | 0.458 | 0.286 | 0.302 | 0.247 |
| SK-MES-1 | 0.643 | 0.684 | 0.502 | 0.38 | 0.146 | 0.326 | 0.333 | 0.212 | 0.147 | 0.123 |  |  |  |  |  | 0.681 | 0.717 | 0.341 | 0.172 | 0.139 |
| SW 1573 | 0.371 | 0.256 | 0.178 | 0.113 | 0.0928 | 0.466 | 0.387 | 0.2 | 0.158 | 0.112 |  |  |  |  |  | 0.768 | 0.798 | 0.455 | 0.272 | 0.171 |
| UMC-11 | 0.235 | 0.192 | 0.176 | 0.174 | 0.164 | 0.316 | 0.379 | 0.129 | 0.137 | 0.133 |  |  |  |  |  | 0.736 | 0.194 | 0.137 | 0.135 | 0.103 |
